In ChEMBL document CHEMBL5316324, “Discovery, Characterization, and Engineering of LvIC, an α4/4-Conotoxin That Selectively Blocks Rat α6/α3β4 Nicotinic Acetylcholine Receptors” (J Med Chem, 2023):
Numbered stars: 1 amine (or outer) side, 2 acyl side, 3 side chain; on linkers, the order of the positions; unused ones are H or OH. Bridge positions count the residues as written; N and C are the ends. Square brackets hold non-standard residues; d marks the D form. Side chains are listed from the residue outwards. Peptide text beside a SMILES is read from it. ξ: configuration not given here. ξPro(4ξ-NH2) = O=C(C1CC(N[*:3])CN1[*:1])[*:2]; ξpGlu = O=C1CCC(C(=O)O)N1

Tests used:
[1] = biological target: T1, Nicotinic acetylcholine receptor alpha6/alpha3/beta4 (Rattus norvegicus, UniProt P04757+P12392+P43143); test: Inhibition of rat alpha6/alpha3beta4 nAChR expressed in Xenopus Oocytes in presence of acetylcholine by Voltage-clamp recording; assay type: cell-based
Rattus norvegicus = organism: Rattus norvegicus; test: Selectivity ratio of IC50 for rat alpha6/alpha3beta4 nAChR expressed in Stage V-VI Xenopus laevis oocytes in presence of acetylcholine to IC50 for rat alpha3beta4 nAChR expressed in Stage V-VI Xenopus laevis Oocytes in presence of acetylcholine by electrophysiological recording; assay type: cell-based
[2] = biological target: Nicotinic acetylcholine receptor alpha9/alpha10 (Rattus norvegicus, UniProt P43144+Q9JLB5); test: Inhibition of rat alpha9/alpha10 nAChR expressed in Stage V-VI Xenopus laevis Oocytes assessed as inhibition of acetylcholine-induced current in presence of acetylcholine by electrophysiological recording; assay type: cell-based, Oocyte
[3] = biological target: Nicotinic acetylcholine receptor alpha9/alpha10 (Rattus norvegicus) (UniProt P43144+Q9JLB5); test: Inhibition of rat alpha9/alpha10 nAChR expressed in Stage V-VI Xenopus laevis Oocytes assessed as inhibition of acetylcholine-induced current at 10 uM in presence of acetylcholine by electrophysiological recording relative to control; assay type: cell-based; settings: Oocyte
[4] = biological target: Nicotinic acetylcholine receptor alpha1/beta1/epsilon/delta (Mus musculus, UniProt P02716+P04756+P09690+P20782); test: Inhibition of mouse alpha1/beta1deltaepsilon nAChR expressed in Stage V-VI Xenopus laevis Oocytes assessed as inhibition of acetylcholine-induced current in presence of acetylcholine by electrophysiological recording; assay type: cell-based, Oocyte
[5] = biological target: Neuronal acetylcholine receptor; alpha2/beta4 (Rattus norvegicus) (UniProt P12389+P12392); test: Inhibition of rat alpha2/beta4 nAChR expressed in Stage V-VI Xenopus laevis Oocytes assessed as inhibition of acetylcholine-induced current at 10 uM in presence of acetylcholine by electrophysiological recording relative to control; assay type: cell-based; settings: Oocyte
[6] = biological target: Neuronal acetylcholine receptor; alpha3/beta4 (Rattus norvegicus, UniProt P04757+P12392); test: Inhibition of rat alpha3/beta4 nAChR expressed in Stage V-VI Xenopus laevis Oocytes assessed as inhibition of acetylcholine-induced current in presence of acetylcholine by electrophysiological recording; assay type: cell-based, Oocyte
[7] = biological target: Neuronal acetylcholine receptor subunit alpha-7 (Rattus norvegicus) (UniProt Q05941); test: Inhibition of rat alpha7 nAChR expressed in Stage V-VI Xenopus laevis Oocytes assessed as inhibition of acetylcholine-induced current at 10 uM in presence of acetylcholine by electrophysiological recording relative to control; assay type: cell-based; settings: Oocyte
[8] = biological target: T1, Nicotinic acetylcholine receptor alpha6/alpha3/beta4; test: (§1) Inhibition of rat alpha6/alpha3beta4 nAChR expressed in Stage V-VI Xenopus laevis Oocytes assessed as inhibition of acetylcholine-induced current in presence of acetylcholine by electrophysiological recording; assay type: cell-based, Oocyte
[9] = biological target: Neuronal acetylcholine receptor; alpha4/beta2 (Rattus norvegicus, UniProt P09483+P12390); test: Inhibition of rat alpha4/beta2 nAChR expressed in Stage V-VI Xenopus laevis Oocytes assessed as inhibition of acetylcholine-induced current in presence of acetylcholine by electrophysiological recording; assay type: cell-based, Oocyte
[10] = biological target: Neuronal acetylcholine receptor; alpha4/beta4 (Rattus norvegicus) (UniProt P09483+P12392); test: Inhibition of rat alpha4/beta4 nAChR expressed in Stage V-VI Xenopus laevis Oocytes assessed as inhibition of acetylcholine-induced current at 10 uM in presence of acetylcholine by electrophysiological recording relative to control; assay type: cell-based; settings: Oocyte
[11] = biological target: Neuronal acetylcholine receptor; alpha3/beta2 (Rattus norvegicus) (UniProt P04757+P12390); test: Inhibition of rat alpha3/beta2 nAChR expressed in Stage V-VI Xenopus laevis Oocytes assessed as inhibition of acetylcholine-induced current at 10 uM in presence of acetylcholine by electrophysiological recording relative to control; assay type: cell-based; settings: Oocyte
[12] = biological target: Nicotinic acetylcholine receptor alpha6/alpha3/beta2/beta3 (Rattus norvegicus, UniProt P04757+P12390+P12391+P43143); test: Inhibition of rat alpha6/alpha3beta2beta3 nAChR expressed in Stage V-VI Xenopus laevis Oocytes assessed as inhibition of acetylcholine-induced current in presence of acetylcholine by electrophysiological recording; assay type: cell-based, Oocyte
[13] = biological target: Neuronal acetylcholine receptor; alpha3/beta2 (Rattus norvegicus, UniProt P04757+P12390); test: Inhibition of rat alpha3/beta2 nAChR expressed in Stage V-VI Xenopus laevis Oocytes assessed as inhibition of acetylcholine-induced current in presence of acetylcholine by electrophysiological recording; assay type: cell-based, Oocyte
[14] = biological target: Neuronal acetylcholine receptor; alpha2/beta2 (Rattus norvegicus) (UniProt P12389+P12390); test: Inhibition of rat alpha2/beta2 nAChR expressed in Stage V-VI Xenopus laevis Oocytes assessed as inhibition of acetylcholine-induced current at 10 uM in presence of acetylcholine by electrophysiological recording relative to control; assay type: cell-based; settings: Oocyte
[15] = biological target: Neuronal acetylcholine receptor; alpha4/beta4 (Rattus norvegicus, UniProt P09483+P12392); test: Inhibition of rat alpha4/beta4 nAChR expressed in Stage V-VI Xenopus laevis Oocytes assessed as inhibition of acetylcholine-induced current in presence of acetylcholine by electrophysiological recording; assay type: cell-based, Oocyte
[16] = biological target: Nicotinic acetylcholine receptor alpha1/beta1/epsilon/delta (Mus musculus) (UniProt P04756+P09690+P02716+P20782); test: Inhibition of mouse alpha1/beta1deltaepsilon nAChR expressed in Stage V-VI Xenopus laevis Oocytes assessed as inhibition of acetylcholine-induced current at 10 uM in presence of acetylcholine by electrophysiological recording relative to control; assay type: cell-based; settings: Oocyte
[17] = biological target: Neuronal acetylcholine receptor; alpha2/beta4 (Rattus norvegicus, UniProt P12389+P12392); test: Inhibition of rat alpha2/beta4 nAChR expressed in Stage V-VI Xenopus laevis Oocytes assessed as inhibition of acetylcholine-induced current in presence of acetylcholine by electrophysiological recording; assay type: cell-based, Oocyte
[18] = biological target: Neuronal acetylcholine receptor subunit alpha-7 (Rattus norvegicus, UniProt Q05941); test: Inhibition of rat alpha7 nAChR expressed in Stage V-VI Xenopus laevis Oocytes assessed as inhibition of acetylcholine-induced current in presence of acetylcholine by electrophysiological recording; assay type: cell-based, Oocyte
[19] = biological target: Neuronal acetylcholine receptor; alpha4/beta2 (Rattus norvegicus) (UniProt P09483+P12390); test: Inhibition of rat alpha4/beta2 nAChR expressed in Stage V-VI Xenopus laevis Oocytes assessed as inhibition of acetylcholine-induced current at 10 uM in presence of acetylcholine by electrophysiological recording relative to control; assay type: cell-based; settings: Oocyte
[20] = biological target: Neuronal acetylcholine receptor; alpha2/beta2 (Rattus norvegicus, UniProt P12389+P12390); test: Inhibition of rat alpha2/beta2 nAChR expressed in Stage V-VI Xenopus laevis Oocytes assessed as inhibition of acetylcholine-induced current in presence of acetylcholine by electrophysiological recording; assay type: cell-based, Oocyte
[21] = biological target: Neuronal acetylcholine receptor; alpha3/beta4 (Rattus norvegicus) (UniProt P04757+P12392); test: Inhibition of rat alpha3/beta4 nAChR expressed in Stage V-VI Xenopus laevis Oocytes assessed as inhibition of acetylcholine-induced current at 10 uM in presence of acetylcholine by electrophysiological recording relative to control; assay type: cell-based; settings: Oocyte
[22] = biological target: Nicotinic acetylcholine receptor alpha6/alpha3/beta2/beta3 (Rattus norvegicus) (UniProt P04757+P12390+P12391+P43143); test: Inhibition of rat alpha6/alpha3beta2beta3 nAChR expressed in Stage V-VI Xenopus laevis Oocytes assessed as inhibition of acetylcholine-induced current at 10 uM in presence of acetylcholine by electrophysiological recording relative to control; assay type: cell-based; settings: Oocyte
[23] = biological target: Nicotinic acetylcholine receptor alpha6/alpha3/beta4 (Rattus norvegicus) (UniProt P04757+P12392+P43143); test: as §1, with “current by measuring recovery time at 10 uM preincubated with compound for 5 mins followed by washout” for “current”; assay type: cell-based; settings: Oocyte

T1 sequence (P04757 whole entry): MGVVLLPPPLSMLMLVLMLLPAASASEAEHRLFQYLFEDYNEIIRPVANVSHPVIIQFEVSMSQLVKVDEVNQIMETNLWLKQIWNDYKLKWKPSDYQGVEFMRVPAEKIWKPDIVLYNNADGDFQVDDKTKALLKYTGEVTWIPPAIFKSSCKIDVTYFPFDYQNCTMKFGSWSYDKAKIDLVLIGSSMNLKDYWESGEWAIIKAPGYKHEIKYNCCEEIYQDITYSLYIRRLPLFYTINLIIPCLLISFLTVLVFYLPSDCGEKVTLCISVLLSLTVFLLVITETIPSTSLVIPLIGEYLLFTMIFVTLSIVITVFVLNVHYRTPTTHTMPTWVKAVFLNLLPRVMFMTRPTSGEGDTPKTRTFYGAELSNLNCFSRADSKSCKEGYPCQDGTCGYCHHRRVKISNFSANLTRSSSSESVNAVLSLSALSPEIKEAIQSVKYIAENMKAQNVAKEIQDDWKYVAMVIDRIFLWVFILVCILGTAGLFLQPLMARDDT
T1 sequence (P12392 whole entry): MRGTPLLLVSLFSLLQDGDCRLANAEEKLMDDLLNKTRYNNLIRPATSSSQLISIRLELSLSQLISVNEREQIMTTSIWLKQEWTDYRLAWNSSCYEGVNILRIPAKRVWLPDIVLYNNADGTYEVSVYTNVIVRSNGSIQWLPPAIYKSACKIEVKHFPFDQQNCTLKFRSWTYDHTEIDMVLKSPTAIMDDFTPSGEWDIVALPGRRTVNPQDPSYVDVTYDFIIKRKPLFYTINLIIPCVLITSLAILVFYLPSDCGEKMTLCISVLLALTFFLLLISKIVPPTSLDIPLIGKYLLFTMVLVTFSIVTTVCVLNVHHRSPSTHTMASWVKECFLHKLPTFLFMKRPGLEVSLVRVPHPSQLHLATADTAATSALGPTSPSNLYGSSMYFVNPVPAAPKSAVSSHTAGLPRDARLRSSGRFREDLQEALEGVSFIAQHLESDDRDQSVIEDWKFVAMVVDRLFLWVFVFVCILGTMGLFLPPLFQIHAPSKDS
T1 sequence (P43143 whole entry): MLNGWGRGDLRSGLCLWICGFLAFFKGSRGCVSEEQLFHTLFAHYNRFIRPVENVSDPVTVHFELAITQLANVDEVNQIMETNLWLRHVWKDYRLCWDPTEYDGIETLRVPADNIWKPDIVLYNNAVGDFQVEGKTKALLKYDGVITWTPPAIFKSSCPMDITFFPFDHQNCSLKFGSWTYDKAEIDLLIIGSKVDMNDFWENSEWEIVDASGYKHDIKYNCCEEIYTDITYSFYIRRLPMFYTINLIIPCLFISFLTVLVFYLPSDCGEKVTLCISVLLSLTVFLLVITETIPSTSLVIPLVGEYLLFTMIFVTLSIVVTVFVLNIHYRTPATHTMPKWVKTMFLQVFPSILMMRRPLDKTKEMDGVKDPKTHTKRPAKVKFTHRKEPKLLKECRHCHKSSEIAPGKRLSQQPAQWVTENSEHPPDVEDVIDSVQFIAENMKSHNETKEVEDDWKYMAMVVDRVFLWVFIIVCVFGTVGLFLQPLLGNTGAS
Chain of Neuronal acetylcholine receptor subunit alpha-7 (Q05941 whole entry): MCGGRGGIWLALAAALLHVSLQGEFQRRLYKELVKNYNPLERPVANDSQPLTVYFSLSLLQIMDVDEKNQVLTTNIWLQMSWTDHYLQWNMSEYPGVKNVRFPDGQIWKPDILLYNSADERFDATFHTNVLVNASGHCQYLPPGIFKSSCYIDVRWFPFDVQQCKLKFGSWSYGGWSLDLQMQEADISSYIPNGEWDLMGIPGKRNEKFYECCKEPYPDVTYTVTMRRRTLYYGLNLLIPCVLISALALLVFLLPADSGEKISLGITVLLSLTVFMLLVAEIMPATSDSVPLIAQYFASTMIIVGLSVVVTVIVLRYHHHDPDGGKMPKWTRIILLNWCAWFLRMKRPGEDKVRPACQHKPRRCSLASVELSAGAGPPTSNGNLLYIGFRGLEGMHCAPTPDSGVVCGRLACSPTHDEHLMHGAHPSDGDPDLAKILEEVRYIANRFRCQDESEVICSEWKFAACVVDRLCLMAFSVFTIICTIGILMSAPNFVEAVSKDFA
Chain of Neuronal acetylcholine receptor subunit alpha-7 (Rattus norvegicus) (Q05941 whole entry): as above
Chain of Nicotinic acetylcholine receptor alpha9/alpha10 (P43144 whole entry): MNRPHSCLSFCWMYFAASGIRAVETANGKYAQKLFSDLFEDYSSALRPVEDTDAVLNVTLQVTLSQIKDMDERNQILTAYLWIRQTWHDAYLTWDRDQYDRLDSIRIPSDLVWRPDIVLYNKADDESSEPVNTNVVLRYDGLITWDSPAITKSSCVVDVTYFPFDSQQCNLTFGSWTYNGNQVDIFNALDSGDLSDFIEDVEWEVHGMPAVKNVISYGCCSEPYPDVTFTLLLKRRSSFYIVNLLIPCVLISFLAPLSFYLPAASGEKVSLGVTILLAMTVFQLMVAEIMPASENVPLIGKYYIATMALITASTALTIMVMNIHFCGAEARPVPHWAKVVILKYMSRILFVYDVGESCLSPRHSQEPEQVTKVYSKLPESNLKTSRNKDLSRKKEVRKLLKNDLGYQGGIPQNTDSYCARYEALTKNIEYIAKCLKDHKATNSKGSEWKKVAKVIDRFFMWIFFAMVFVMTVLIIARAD
Chain of Nicotinic acetylcholine receptor alpha9/alpha10 (Q9JLB5 whole entry): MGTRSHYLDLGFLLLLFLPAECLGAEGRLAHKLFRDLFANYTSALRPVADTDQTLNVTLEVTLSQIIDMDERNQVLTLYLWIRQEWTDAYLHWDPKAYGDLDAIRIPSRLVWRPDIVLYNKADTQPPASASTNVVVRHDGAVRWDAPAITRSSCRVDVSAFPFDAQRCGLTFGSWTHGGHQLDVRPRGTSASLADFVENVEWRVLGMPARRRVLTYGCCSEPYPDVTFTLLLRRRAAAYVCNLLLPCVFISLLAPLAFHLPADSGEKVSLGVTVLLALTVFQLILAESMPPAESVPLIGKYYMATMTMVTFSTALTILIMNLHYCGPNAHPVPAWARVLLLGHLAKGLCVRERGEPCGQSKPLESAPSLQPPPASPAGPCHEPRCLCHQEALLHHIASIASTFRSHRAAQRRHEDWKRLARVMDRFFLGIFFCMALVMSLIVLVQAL
Chain of Neuronal acetylcholine receptor; alpha4/beta4 (P09483 whole entry): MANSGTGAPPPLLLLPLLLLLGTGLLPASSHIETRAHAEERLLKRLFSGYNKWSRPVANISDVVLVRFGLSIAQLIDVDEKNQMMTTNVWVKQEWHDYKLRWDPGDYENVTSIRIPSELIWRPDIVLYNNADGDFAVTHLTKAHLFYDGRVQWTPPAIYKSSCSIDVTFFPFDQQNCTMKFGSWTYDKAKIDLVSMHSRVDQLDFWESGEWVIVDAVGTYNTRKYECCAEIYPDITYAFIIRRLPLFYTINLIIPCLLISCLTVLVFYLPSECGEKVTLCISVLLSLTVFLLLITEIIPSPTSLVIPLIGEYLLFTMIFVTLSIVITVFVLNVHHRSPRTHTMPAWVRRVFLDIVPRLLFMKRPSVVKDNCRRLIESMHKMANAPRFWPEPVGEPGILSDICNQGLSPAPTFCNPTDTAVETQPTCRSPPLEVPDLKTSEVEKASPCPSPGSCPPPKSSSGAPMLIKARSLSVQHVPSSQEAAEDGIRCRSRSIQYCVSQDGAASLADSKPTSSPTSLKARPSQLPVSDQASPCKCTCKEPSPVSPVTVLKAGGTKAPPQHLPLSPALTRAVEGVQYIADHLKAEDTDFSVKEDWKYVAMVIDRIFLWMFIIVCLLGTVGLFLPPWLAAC
Chain of Neuronal acetylcholine receptor; alpha4/beta4 (P12392 whole entry): as the sequence (P12392 whole entry) above

SMILES	IC50 [2]	inhibition [3]	IC50 [4]	inhibition [5]	IC50 [6]	inhibition [7]	IC50 [8]	IC50 [9]	inhibition [10]	inhibition [11]	IC50 [12]	IC50 [13]	inhibition [14]	IC50 [15]	inhibition [16]	IC50 [17]	IC50 [18]	inhibition [19]	IC50 [20]	TIME [23]	also measured
CC(C)C[C@H](NC(=O)[C@@H](NC(=O)[C@H](C)NC(=O)[C@H](CS)NC(=O)[C@@H]1CCCN1C(=O)[C@@H]1CCC(=O)N1C(=O)[C@H](C)NC(=O)[C@H](CO)NC(=O)[C@H](CS)NC(=O)[C@H](CS)NC(=O)CN)C(C)C)C(=O)N[C@@H](Cc1ccc(O)cc1)C(=O)N[C@@H](CS)C(N)=O																					IC50 [1]: 0.0581 µM; Ratio (Rattus norvegicus): 20
CC(C)[C@H](NC(=O)[C@@H]1CCCN1C(=O)[C@H](CC(N)=O)NC(=O)[C@H](C)NC(=O)[C@H](CS)NC(=O)[C@H](CS)NC(=O)[C@@H](N)CC(=O)O)C(=O)N[C@@H](CS)C(=O)N[C@@H](CC(N)=O)C(=O)NCC(=O)N[C@@H](CCCCN)C(=O)N[C@@H](Cc1cnc[nH]1)C(=O)N[C@@H](CS)C(N)=O (H-DCCANPVCNGKHC-NH2)	> 10 µM	< 50%	> 10 µM	< 50%	> 10 µM	< 50%	0.31 µM	> 10 µM	< 50%	< 50%	> 10 µM	> 10 µM	< 50%	> 10 µM	< 50%	> 10 µM	> 10 µM	< 50%	> 10 µM		inhibition [21]: < 50%; inhibition [22]: < 50%
CC(C)[C@@H]1NC(=O)[C@@H]2CCCN2C(=O)[C@H](CC(N)=O)NC(=O)[C@H](C)NC(=O)[C@@H]2CSSC[C@@H](C(=O)N[C@@H](CCC(N)=O)C(=O)O)NC(=O)[C@H](Cc3cnc[nH]3)NC(=O)[C@H](CCCCN)NC(=O)CNC(=O)[C@H](CC(N)=O)NC(=O)[C@H](CSSC[C@H](NC(=O)[C@@H](N)CC(=O)O)C(=O)N2)NC1=O (H-DCCANPVCNGKHCQ-OH; disulfide 2-8, 3-13)	> 10 µM	< 50%	> 10 µM	< 50%	> 10 µM	< 50%	3.3 µM	> 10 µM	< 50%	< 50%	> 10 µM	> 10 µM	< 50%	> 10 µM	< 50%	> 10 µM	> 10 µM	< 50%	> 10 µM		inhibition [21]: < 50%; inhibition [22]: < 50%
CC(C)[C@H](NC(=O)[C@@H]1CCCN1C(=O)[C@H](CC(N)=O)NC(=O)[C@H](C)NC(=O)[C@H](CS)NC(=O)[C@H](CS)NC(=O)CN)C(=O)N[C@@H](CS)C(=O)N[C@@H](CC(N)=O)C(=O)NCC(=O)N[C@@H](C)C(=O)N[C@@H](Cc1cnc[nH]1)C(=O)N[C@@H](CS)C(N)=O (H-GCCANPVCNGAHC-NH2)							0.0723 µM													0.217 h	
CC(C)[C@H](NC(=O)[C@H](CS)NC(=O)[C@H](C)NC(=O)[C@@H]1CCCN1C(=O)[C@H](CC(N)=O)NC(=O)[C@H](Cc1c[nH]c2ccccc12)NC(=O)[C@H](CS)NC(=O)[C@H](CS)NC(=O)CNC(=O)C1CC(NC(=O)[C@H](CO)NC(=O)C2CCC(=O)N2)CN1)C(=O)N[C@@H](CCCCN)C(=O)N[C@@H](CC(N)=O)C(=O)N[C@@H](CCCNC(=N)N)C(=O)N[C@@H](CS)C(N)=O (stereo not given in full) (H-[ξPro(4ξ-NH2)]([Ser-ξpGlu])GCCWNPACVKNRC-NH2)							0.094 µM													0.05 h	
CC(C)[C@H](NC(=O)[C@H](Cc1cnc[nH]1)NC(=O)[C@H](CCCCN)NC(=O)[C@H](CS)NC(=O)[C@@H]1CCCN1C(=O)[C@@H]1CCCN1C(=O)[C@H](CC(N)=O)NC(=O)[C@H](C)NC(=O)[C@H](CS)NC(=O)[C@H](CS)NC(=O)C1CCC(=O)N1)C(=O)N[C@@H](CC(N)=O)C(=O)N[C@@H](CS)C(=O)N[C@@H](CCCNC(=N)N)C(N)=O (stereo not given in full) ([ξpGlu]CCANPPCKHVNCR-NH2)							0.0818 µM													0.15 h	
